{"source": "patent US8101576B2", "about": "“Compounds and their effects on feeding behaviour” (priority 2006, dated 2012)", "assay": "Inhibition of food intake, subcutaneous injection to fasted rats", "assay_type": "in vivo, Wistar rats", "protocol": "Animals: All animal procedures were approved by the British Home Office Animals (Scientific Procedures) Act 1986 (Project License number 70/5516).\nStudy protocol: C57BL/6 mice (20-35 g) were injected with the peptide under investigation following a 20-hour fast. Wistar rats were injected following a 24-hour fast. […] A pre-weighed quantity of chow was presented immediately after injection.", "note": "Square brackets hold non-standard residues; d marks the D form. Ends that are not written are not given here. * marks the point of attachment. Arachidoyl = CCCCCCCCCCCCCCCCCCCC(=O)*", "data": [{"substance": "D-His Ala Gln Gly Thr Phe Thr Ser Asp Tyr Ser Lys Tyr Leu Glu Glu Glu Leu Val Lys Tyr Phe Leu Gln Trp Leu Lys Asn Ala Gly Pro Ser Lys Asn Asn Ile Ala ([dH]AQGTFTSDYSKYLEEELVKYFLQWLKNAGPSKNNIA) [PEPTIDE NO: 100]", "values": [{"measurement": "Mean cumulative food intake in comparison to saline control", "setting": "20 nmoles/kg, over 24 hours", "result": "potent and long acting suppression of food intake"}, {"measurement": "food intake in comparison to control group treated with native oxyntomodulin", "setting": "20 nmoles/kg, over 24 hours", "result": "lower than in the control group treated with native oxyntomodulin"}]}, {"substance": "D-His Ala Asp Gly Thr Phe Thr Ser Asp Tyr Ser Lys Tyr Leu Glu Glu Glu Leu Val Lys Tyr Phe Leu Gln Trp Leu Lys Asn Ala Gly Pro Ser Lys Asn Asn Ile Ala ([dH]ADGTFTSDYSKYLEEELVKYFLQWLKNAGPSKNNIA) [PEPTIDE NO: 148]", "values": [{"measurement": "Mean cumulative food intake in comparison to saline control", "setting": "10 nmoles/kg, over 24 hours", "result": "potent and long acting suppression of food intake"}, {"measurement": "food intake in comparison to control group treated with native oxyntomodulin", "setting": "10 nmoles/kg, over 24 hours", "result": "lower than in the control group treated with native oxyntomodulin"}]}, {"substance": "D-His Ser Gln Gly Thr Phe Thr Ser Asp Tyr Ser Lys Tyr Leu Glu Gln Glu Leu Val Lys Tyr Phe Ile Gln Trp Leu Lys Asn Ala Gly Pro Ser Lys Asn Asn Ile Ala ([dH]SQGTFTSDYSKYLEQELVKYFIQWLKNAGPSKNNIA) [PEPTIDE NO: 82]", "values": [{"measurement": "Mean cumulative food intake in comparison to saline control", "setting": "10 nmoles/kg, over 24 hours", "result": "potent and long acting suppression of food intake"}, {"measurement": "food intake in comparison to control group treated with native oxyntomodulin", "setting": "10 nmoles/kg, over 24 hours", "result": "lower than in the control group treated with native oxyntomodulin"}]}, {"substance": "D-His Ala Asp Gly Thr Phe Thr Ser Asp Tyr Ser Lys Tyr Leu Glu Gln Glu Leu Val Lys Tyr Phe Ile Gln Trp Leu Lys Asn Ala Gly Pro Ser Lys Asn Asn Ile Ala ([dH]ADGTFTSDYSKYLEQELVKYFIQWLKNAGPSKNNIA) [PEPTIDE NO: 178]", "values": [{"measurement": "Mean cumulative food intake in comparison to saline control", "setting": "10 nmoles/kg, over 24 hours", "result": "potent and long acting suppression of food intake"}, {"measurement": "food intake in comparison to control group treated with native oxyntomodulin", "setting": "10 nmoles/kg, over 24 hours", "result": "lower than in the control group treated with native oxyntomodulin"}]}, {"substance": "D-His Ala Asp Gly Thr Phe Thr Ser Asp Tyr Ser Lys Tyr Leu Glu Glu Glu Ile Val Lys Tyr Phe Ile Glu Trp Leu Lys Asn Gly Gly Pro Ser Lys Asn Asn Ile Ala ([dH]ADGTFTSDYSKYLEEEIVKYFIEWLKNGGPSKNNIA) [PEPTIDE NO: 164]", "values": [{"measurement": "food intake suppression continues for", "setting": "4 nmoles/kg, 48 hours observed", "result": "≥ 48", "unit": "h"}, {"measurement": "Mean cumulative food intake in comparison to saline control", "setting": "4 nmoles/kg, over 48 hours", "result": "potent and long acting suppression of food intake"}, {"measurement": "food intake in comparison to control group treated with native oxyntomodulin", "setting": "4 nmoles/kg, over 48 hours", "result": "lower than in the control group treated with native oxyntomodulin"}]}, {"substance": "D-His Ala Asp Gly Thr Phe Thr Ser Asp Tyr Ser Lys Tyr Leu Glu Glu Glu Leu Val Lys Tyr Phe Ile Gln Trp Leu Lys Asn Gly Gly Pro Ser Lys Asn Asn Ile Ala Ala Ala Lys-arachidoyl ([dH]ADGTFTSDYSKYLEEELVKYFIQWLKNGGPSKNNIAAAK(Arachidoyl)) [PEPTIDE NO: 209]", "values": [{"measurement": "food intake in comparison to control group treated with native oxyntomodulin", "setting": "80 mmoles/kg, over 48 hours", "result": "lower than in the control group treated with native oxyntomodulin"}, {"measurement": "Mean cumulative food intake in comparison to saline control", "setting": "over 48 hours", "result": "potent and long acting suppression of food intake"}]}, {"substance": "D-His Ala Asp Gly Thr Phe Thr Ser Asp Tyr Ser Lys Tyr Leu Glu Gln Glu Ile Val Lys Tyr Phe Leu Gln Trp Leu Lys Asn Ala Gly Pro Ser Lys Asn Asn Ile Ala ([dH]ADGTFTSDYSKYLEQEIVKYFLQWLKNAGPSKNNIA) [PEPTIDE NO: 184]", "values": [{"measurement": "Mean cumulative food intake in comparison to saline control", "setting": "3 nmoles/kg, over 24 hours", "result": "potent and long acting suppression of food intake"}, {"measurement": "food intake in comparison to control group treated with native oxyntomodulin", "setting": "3 nmoles/kg, over 24 hours", "result": "lower than in the control group treated with native oxyntomodulin"}]}]}
